According to US20100298141A1, “SUBSTITUTED PYRIDINE N-OXIDE HERBICIDES” (E. I. DU PONT DE NEMOURS AND COMPANY, priority 2007, published 2010):

Tests used:
[1] = system: kochia; assay: Test C pre-/postemergence test; assay type: in vivo, Kochia scoparia; conditions: Preemergence
Procedure, shortened: (§1)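 Test chemicals were formulated with surfactant in a non-phytotoxic solvent and sprayed both on freshly planted seeds (preemergence) and on 1- to 4-leaf plants of 2–18 cm (postemergence). Flooded-paddy pots received compound directly into 3 cm of standing water, maintained for the test.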

[2] = system: wild oat; assay: Test C pre-/postemergence test; assay type: in vivo, Avena fatua; conditions: Preemergence
Procedure, shortened: as §1

[3] = system: blackgrass; assay: Test C pre-/postemergence test; assay type: in vivo, Alopecurus myosuroides
Procedure, shortened: as §1

[4] = system: catchweed bedstraw; assay: Test C pre-/postemergence test; assay type: in vivo, Galium aparine; conditions: Preemergence
Procedure, shortened: as §1

[5] = system: corn; assay: Test A pre-/postemergence greenhouse test; assay type: in vivo, Zea mays; conditions: for Corn plant response rating: 0 to 100 scale
Procedure, shortened: (§2)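 Sowing in loam/sand; same-day pre (directed soil spray) and post (foliar, 1–2 leaf, 2–10 cm) treatment with surfactant-containing non-phytotoxic solvent formulation; ~10 days in greenhouse; eye-scored injury against untreated plants.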

[6] = system: duck salad; assay: Test C flooded paddy test; assay type: in vivo, Heteranthera limosa; conditions: Flood
Procedure, shortened: (§3)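 Flooded 3 cm over soil; compound into paddy water; depth kept constant. Greenhouse 13–15 d.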

[7] = system: redroot pigweed; assay: Test A pre-/postemergence greenhouse test; assay type: in vivo, Amaranthus retroflexus; conditions: for Pigweed plant response rating: 0 to 100 scale
Procedure, shortened: as §2

[8] = system: barnyardgrass; assay: Test C flooded paddy test; assay type: in vivo, Echinochloa crus-galli; conditions: Flood
Procedure, shortened: as §3

[9] = system: pigweed; assay: Test C pre-/postemergence test; assay type: in vivo, Amaranthus retroflexus; conditions: Preemergence
Procedure, shortened: as §1

[10] = system: velvetleaf; assay: Test C pre-/postemergence test; assay type: in vivo, Abutilon theophrasti; conditions: Preemergence
Procedure, shortened: as §1

[11] = system: rice; assay: Test C flooded paddy test; assay type: in vivo, Oryza sativa; conditions: Flood
Procedure, shortened: as §3

[12] = system: wheat; assay: Test C pre-/postemergence test; assay type: in vivo, Triticum aestivum; conditions: Preemergence
Procedure, shortened: as §1

[13] = system: Surinam grass; assay: Test C pre-/postemergence test; assay type: in vivo, Brachiaria decumbens; conditions: Preemergence
Procedure, shortened: as §1

[14] = system: common (oilseed) sunflower; assay: Test C pre-/postemergence test; assay type: in vivo, Helianthus annuus; conditions: Preemergence
Procedure, shortened: as §1

[15] = system: bermudagrass; assay: Test C pre-/postemergence test; assay type: in vivo, Cynodon dactylon
Procedure, shortened: as §1

[16] = system: crabgrass; assay: Test C pre-/postemergence test; assay type: in vivo, Digitaria sanguinalis; conditions: Preemergence
Procedure, shortened: as §1

[17] = system: eastern black nightshade; assay: Test C pre-/postemergence test; assay type: in vivo, Solanum ptycanthum; conditions: Preemergence
Procedure, shortened: as §1

[18] = 31 g ai/ha, scale 0 to 100 (0 no effect, 100 complete control)
[19] = Preemergence, 31 g ai/ha, scale 0 to 100 (0 no effect, 100 complete control)
[20] = preemergence, 125 g ai/ha, scale 0 (no effect) to 100 (complete control)
[21] = Postemergence, 125 g ai/ha, 0 is no effect, 100 is complete control
[22] = Postemergence, 500 g ai/ha, 0 is no effect, 100 is complete control
[23] = Preemergence, 125 g ai/ha, 0 no effect, 100 complete control
[24] = Preemergence, 500 g ai/ha, 0 to 100 scale where 0 is no effect and 100 is complete control
[25] = 62 g ai/ha, scale 0 to 100, 0 no effect, 100 complete control, 13 to 15 days
[26] = 125 g ai/ha, scale 0 to 100, 0 no effect, 100 complete control, 13 to 15 days
[27] = 250 g ai/ha, scale 0 to 100 (0 no effect, 100 complete control)

## Cc1cc[n+]([O-])c(S(=O)(=O)C(Cl)c2c(C(F)(F)F)nn(C)c2Cl)c1 (racemic) [Compound 22]
[1]; 62 g ai/ha, scale 0 to 100
  Kochia plant response rating: 0
[1]; [18]
  Plant response rating, Kochia: 0
[2]; 62 g ai/ha, scale 0 to 100
  Oat, Wild plant response rating: 45
[2]; [18]
  Plant response rating, Oat, Wild: 0
[3]; 62 g ai/ha, Preemergence, scale 0 to 100
  Blackgrass plant response rating: 95
[3]; [19]
  Plant response rating, Blackgrass: 55
[3]; Preemergence, 250 g ai/ha
  Plant response rating (0 to 100), Blackgrass: 98
[3]; [20]
  Blackgrass plant response rating: 95
[4]; 62 g ai/ha, scale 0 to 100
  Galium plant response rating: 100
[4]; [18]
  Plant response rating, Galium: 95
[4]; 250 g ai/ha
  Plant response rating (0 to 100), Galium: 100
[5]; [21]
  Corn plant response rating: 0
[5]; [22]
  Corn plant response rating: 30
[5]; [23]
  Corn plant response rating: 0
[5]; [24]
  Plant response rating, Corn: 20
[6]; [18]
  Plant response rating, Ducksalad: 20
[6]; [25]
  Plant response rating, Ducksalad: 80
[6]; [26]
  Plant response rating, Ducksalad: 85
[6]; [27]
  Plant response rating, Ducksalad: 90
[7]; [21]
  Pigweed plant response rating: 10
[7]; [22]
  Pigweed plant response rating: 50
[7]; [23]
  Pigweed plant response rating: 100
[7]; [24]
  Plant response rating, Pigweed: 100
[8]; [18]
  Plant response rating, Barnyardgrass: 10
[8]; [25]
  Plant response rating, Barnyardgrass: 20
[8]; [26]
  Plant response rating, Barnyardgrass: 80
[8]; [27]
  Plant response rating, Barnyardgrass: 85
[9]; 62 g ai/ha, scale 0 to 100
  Pigweed plant response rating: 100
[9]; [18]
  Plant response rating, Pigweed: 100
[10]; 62 g ai/ha, scale 0 to 100
  Velvetleaf plant response rating: 0
[10]; [18]
  Plant response rating, Velvetleaf: 0
[11]; [18]
  Plant response rating, Rice: 0
[11]; [25]
  Plant response rating, Rice: 30
[11]; [26]
  Plant response rating, Rice: 80
[11]; [27]
  Plant response rating, Rice: 80
[12]; 62 g ai/ha, scale 0 to 100
  Wheat plant response rating: 0
[12]; [18]
  Plant response rating, Wheat: 0
[13]; 62 g ai/ha, scale 0 to 100
  Surinam Grass plant response rating: 60
[13]; [18]
  Plant response rating, Surinam Grass: 10
[14]; 62 g ai/ha, scale 0 to 100
  Sunflower plant response rating: 0
[14]; [18]
  Plant response rating, Sunflower: 0
[15]; 62 g ai/ha, Preemergence, scale 0 to 100 (0 no effect, 100 complete control)
  Bermudagrass plant response rating: 100
[15]; [19]
  Plant response rating, Bermudagrass: 70
[15]; Preemergence, 250 g ai/ha
  Plant response rating (0 to 100), Bermudagrass: 100
[15]; [20]
  Bermudagrass plant response rating: 100
[16]; 62 g ai/ha, scale 0 to 100
  Crabgrass, Large plant response rating: 100
[16]; [18]
  Plant response rating, Crabgrass, Large: 98
[16]; 250 g ai/ha
  Plant response rating (0 to 100), Crabgrass, Large: 100
[17]; 62 g ai/ha, scale 0 to 100
  Nightshade plant response rating: 85
[17]; [18]
  Plant response rating, Nightshade: 0
